Laboratory results: PubChem BioAssay (NCI)
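Test compounds were applied to cells in 96-well plates for 48 hours at 5 doses. GI50 = concentration required for 50% inhibition of growth. Definition used: TGI = concentration required for complete inhibition of growth.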

What was measured:
Assay in all cases: NCI tumour cell line growth inhibition, 48 h
786-0 renal = system: 786-0 renal
A549 NSCLC = system: A549 NSCLC
ACHN renal = system: ACHN renal
BT-549 breast = system: BT-549 breast
CAKI-1 renal = system: CAKI-1 renal
CCRF-CEM leukemia = system: CCRF-CEM leukemia
COLO 205 colon = system: COLO 205 colon
DU-145 prostate = system: DU-145 prostate
EKVX NSCLC = system: EKVX NSCLC
HCC-2998 colon = system: HCC-2998 colon
HCT-116 colon = system: HCT-116 colon
HCT-15 colon = system: HCT-15 colon
HL-60(TB) leukemia = system: HL-60(TB) leukemia
HOP-62 NSCLC = system: HOP-62 NSCLC
HOP-92 NSCLC = system: HOP-92 NSCLC
HS 578T breast = system: HS 578T breast
HT29 colon = system: HT29 colon
IGROV1 ovarian = system: IGROV1 ovarian
KM12 colon = system: KM12 colon
LOX IMVI melanoma = system: LOX IMVI melanoma
M14 melanoma = system: M14 melanoma
MALME-3M melanoma = system: MALME-3M melanoma
MCF7 breast = system: MCF7 breast
MDA-MB-231 breast = system: MDA-MB-231 breast
MDA-MB-435 = system: MDA-MB-435
MDA-N = system: MDA-N
MOLT-4 leukemia = system: MOLT-4 leukemia
NCI-H226 lung = system: NCI-H226 lung
NCI-H23 lung = system: NCI-H23 lung
NCI-H522 lung = system: NCI-H522 lung
NCI/ADR-RES ovarian = system: NCI/ADR-RES ovarian
OVCAR-3 ovarian = system: OVCAR-3 ovarian
OVCAR-4 ovarian = system: OVCAR-4 ovarian
OVCAR-5 ovarian = system: OVCAR-5 ovarian
OVCAR-8 ovarian = system: OVCAR-8 ovarian
PC-3 prostate = system: PC-3 prostate
RPMI-8226 leukemia = system: RPMI-8226 leukemia
RXF 393 renal = system: RXF 393 renal
SF-268 CNS = system: SF-268 CNS
SF-295 CNS = system: SF-295 CNS
SF-539 CNS = system: SF-539 CNS
SK-MEL-2 melanoma = system: SK-MEL-2 melanoma
SK-MEL-28 melanoma = system: SK-MEL-28 melanoma
SK-OV-3 ovarian = system: SK-OV-3 ovarian
SN12C renal = system: SN12C renal
SNB-19 CNS = system: SNB-19 CNS
SNB-75 CNS = system: SNB-75 CNS
SR leukemia = system: SR leukemia
SW-620 colon = system: SW-620 colon
T-47D breast = system: T-47D breast
TK-10 renal = system: TK-10 renal
U251 CNS = system: U251 CNS
UACC-257 melanoma = system: UACC-257 melanoma
UACC-62 melanoma = system: UACC-62 melanoma
UO-31 renal = system: UO-31 renal
K-562 leukemia = system: K-562 leukemia
NCI-H460 lung = system: NCI-H460 lung
SK-MEL-5 melanoma = system: SK-MEL-5 melanoma

Cc1ccc(/C=C2\N=C(N3CCOCC3)NC2=O)cc1
TGI (786-0 renal): > 100 µM | TGI (A549 NSCLC): > 100 µM | TGI (ACHN renal): > 100 µM | TGI (BT-549 breast): > 100 µM | TGI (CAKI-1 renal): > 100 µM | TGI (CCRF-CEM leukemia): > 100 µM | TGI (COLO 205 colon): > 100 µM | TGI (DU-145 prostate): > 100 µM | TGI (EKVX NSCLC): > 100 µM | TGI (HCC-2998 colon): > 100 µM | TGI (HCT-116 colon): > 100 µM | TGI (HCT-15 colon): > 100 µM | TGI (HL-60(TB) leukemia): > 100 µM | TGI (HOP-62 NSCLC): > 100 µM | TGI (HOP-92 NSCLC): > 100 µM | TGI (HS 578T breast): > 100 µM | TGI (HT29 colon): > 100 µM | TGI (IGROV1 ovarian): > 100 µM | TGI (KM12 colon): > 100 µM | TGI (LOX IMVI melanoma): > 100 µM | TGI (M14 melanoma): > 100 µM | TGI (MALME-3M melanoma): > 100 µM | TGI (MCF7 breast): > 100 µM | TGI (MDA-MB-231 breast): > 100 µM | TGI (MDA-MB-435): > 100 µM | TGI (MDA-N): > 100 µM | TGI (MOLT-4 leukemia): > 100 µM | TGI (NCI-H226 lung): > 100 µM | TGI (NCI-H23 lung): > 100 µM | TGI (NCI-H522 lung): > 100 µM | TGI (NCI/ADR-RES ovarian): > 100 µM | TGI (OVCAR-3 ovarian): > 100 µM | TGI (OVCAR-4 ovarian): > 100 µM | TGI (OVCAR-5 ovarian): > 100 µM | TGI (OVCAR-8 ovarian): > 100 µM | TGI (PC-3 prostate): > 100 µM | TGI (RPMI-8226 leukemia): > 100 µM | TGI (RXF 393 renal): > 100 µM | TGI (SF-268 CNS): > 100 µM | TGI (SF-295 CNS): > 100 µM | TGI (SF-539 CNS): > 100 µM | TGI (SK-MEL-2 melanoma): > 100 µM | TGI (SK-MEL-28 melanoma): > 100 µM | TGI (SK-OV-3 ovarian): > 100 µM | TGI (SN12C renal): > 100 µM | TGI (SNB-19 CNS): > 100 µM | TGI (SNB-75 CNS): > 100 µM | TGI (SR leukemia): > 100 µM | TGI (SW-620 colon): > 100 µM | TGI (T-47D breast): > 100 µM | TGI (TK-10 renal): > 100 µM | TGI (U251 CNS): > 100 µM | TGI (UACC-257 melanoma): > 100 µM | TGI (UACC-62 melanoma): > 100 µM | TGI (UO-31 renal): > 100 µM

COc1cc(O)c2c(=O)c(OC)c(-c3ccc(OC)c(OC)c3)oc2c1.[Co]
TGI (786-0 renal): > 100 µM | TGI (A549 NSCLC): > 100 µM | GI50 (ACHN renal): 56.9 µM | TGI (ACHN renal): > 100 µM | TGI (BT-549 breast): > 100 µM | TGI (CAKI-1 renal): > 100 µM | TGI (COLO 205 colon): > 100 µM | GI50 (DU-145 prostate): > 100 µM | TGI (DU-145 prostate): > 100 µM | GI50 (EKVX NSCLC): > 100 µM | TGI (EKVX NSCLC): > 100 µM | GI50 (HCC-2998 colon): > 100 µM | TGI (HCC-2998 colon): > 100 µM | GI50 (HCT-116 colon): 61.6 µM | TGI (HCT-116 colon): > 100 µM | TGI (HL-60(TB) leukemia): > 100 µM | GI50 (HOP-62 NSCLC): 34.5 µM | TGI (HOP-62 NSCLC): > 100 µM | GI50 (HOP-92 NSCLC): 31.8 µM | TGI (HOP-92 NSCLC): > 100 µM | TGI (HS 578T breast): > 100 µM | GI50 (HT29 colon): > 100 µM | TGI (HT29 colon): > 100 µM | GI50 (IGROV1 ovarian): > 100 µM | TGI (IGROV1 ovarian): > 100 µM | GI50 (K-562 leukemia): 75.5 µM | TGI (K-562 leukemia): > 100 µM | GI50 (KM12 colon): > 100 µM | TGI (KM12 colon): > 100 µM | GI50 (LOX IMVI melanoma): > 100 µM | TGI (LOX IMVI melanoma): > 100 µM | GI50 (M14 melanoma): > 100 µM | TGI (M14 melanoma): > 100 µM | GI50 (MALME-3M melanoma): 51.4 µM | TGI (MALME-3M melanoma): > 100 µM | GI50 (MCF7 breast): > 100 µM | TGI (MCF7 breast): > 100 µM | GI50 (MDA-MB-231 breast): 18.1 µM | TGI (MDA-MB-231 breast): > 100 µM | TGI (MDA-MB-435): > 100 µM | TGI (MDA-N): > 100 µM | GI50 (MOLT-4 leukemia): 9.92 µM | TGI (MOLT-4 leukemia): > 100 µM | TGI (NCI-H226 lung): > 100 µM | GI50 (NCI-H23 lung): > 100 µM | TGI (NCI-H23 lung): > 100 µM | TGI (NCI-H460 lung): > 100 µM | TGI (NCI-H522 lung): 35.1 µM | GI50 (NCI/ADR-RES ovarian): > 100 µM | TGI (NCI/ADR-RES ovarian): > 100 µM | GI50 (OVCAR-3 ovarian): > 100 µM | TGI (OVCAR-3 ovarian): > 100 µM | GI50 (OVCAR-4 ovarian): 13.1 µM | TGI (OVCAR-4 ovarian): > 100 µM | GI50 (OVCAR-5 ovarian): > 100 µM | TGI (OVCAR-5 ovarian): > 100 µM | GI50 (OVCAR-8 ovarian): > 100 µM | TGI (OVCAR-8 ovarian): > 100 µM | GI50 (PC-3 prostate): 66.7 µM | TGI (PC-3 prostate): > 100 µM | TGI (RPMI-8226 leukemia): > 100 µM | TGI (RXF 393 renal): > 100 µM | GI50 (SF-268 CNS): 38.4 µM | TGI (SF-268 CNS): > 100 µM | GI50 (SF-295 CNS): 16.2 µM | TGI (SF-295 CNS): > 100 µM | TGI (SF-539 CNS): > 100 µM | GI50 (SK-MEL-28 melanoma): > 100 µM | TGI (SK-MEL-28 melanoma): > 100 µM | GI50 (SK-MEL-5 melanoma): 70.3 µM | TGI (SK-MEL-5 melanoma): > 100 µM | TGI (SK-OV-3 ovarian): > 100 µM | TGI (SN12C renal): > 100 µM | TGI (SNB-75 CNS): > 100 µM | GI50 (SR leukemia): 5.29 µM | TGI (SR leukemia): > 100 µM | TGI (SW-620 colon): > 100 µM | GI50 (T-47D breast): 10.7 µM | TGI (T-47D breast): > 100 µM | TGI (TK-10 renal): > 100 µM | TGI (U251 CNS): > 100 µM | GI50 (UACC-62 melanoma): 32.3 µM | TGI (UACC-62 melanoma): > 100 µM | TGI (UO-31 renal): > 100 µM
